According to the Deep4Chem optical property database:

Test: solvent given as SMILES

F[B-]1(F)n2c(Oc3ccccc3)c(Cl)c3c2C(=C2C(Br)=C(Cl)C(Oc4ccccc4)=[N+]21)Oc1ccccc1-3
absorption maximum (in ClCCl): 472 nm

c1ccc2cc3c(cc2c1)-c1cccc2c1c-3cc1ccccc12
absorption maximum (in CCCCCCC): 400 nm

CN(C)CCN(Cc1c2ccccc2cc2ccccc12)c1ccc([N+](=O)[O-])cc1[N+](=O)[O-]
absorption maximum (in C1CCCCC1): 372 nm | absorption maximum (in C1CCOC1): 394 nm | absorption maximum (in CC#N): 392 nm | absorption maximum (in CC(C)=O): 392 nm | absorption maximum (in CCO): 394 nm | absorption maximum (in CN(C)C=O): 395 nm | absorption maximum (in CO): 391 nm | absorption maximum (in CS(C)=O): 397 nm | absorption maximum (in ClC(Cl)Cl): 393 nm | absorption maximum (in ClCCl): 394 nm

CCNc1cc2oc(=O)cc(C(F)(F)F)c2cc1C
absorption maximum (in CC#N): 383 nm

CCCCCCCCCCCCc1sc(CCCCCC)c2c3cc(CCCCCC)sc3c3sc(CCCCCC)cc3c12
absorption maximum (in ClC(Cl)Cl): 373 nm

O=S1(=O)C2=C(c3ccc(-c4ccc(N(c5ccccc5)c5ccccc5)cc4)cc31)C1(C3=C(c4ccccc41)S(=O)(=O)c1cc(-c4ccc(N(c5ccccc5)c5ccccc5)cc4)ccc13)c1ccccc12
absorption maximum (in C1CCOC1): 431 nm | absorption maximum (in CC#N): 430 nm | absorption maximum (in CCCCCC): 424 nm | absorption maximum (in Cc1ccccc1): 438 nm | absorption maximum (in ClCCl): 438 nm

CCN(CC)c1ccc(C2=C3C(C)=CC(/C=C/c4ccc(OCCCN=[N+]=[N-])cc4)=[N+]3[B-](F)(F)n3c(C)cc(C)c32)cc1
absorption maximum (in CO): 570 nm

Cc1ccc2c(c1)C(C)(C)c1cc(C)ccc1N2c1ccc2c(c1)C(C)(C)c1cc(N3c4ccc(C)cc4C(C)(C)c4cc(C)ccc43)ccc1S2(=O)=O
absorption maximum (in ClCCl): 370 nm

c1ccc(-n2c(-c3ccc(-c4ccc(-c5ccc(-c6nc7c8ccccc8c8ccccc8c7n6-c6ccccc6)cc5)cc4)cc3)nc3ccccc32)cc1
absorption maximum (in C1CCOC1): 341 nm | absorption maximum (in C1COCCO1): 344 nm | absorption maximum (in CC#N): 337 nm | absorption maximum (in CCCCCC): 341 nm | absorption maximum (in CCCCOCCCC): 340 nm | absorption maximum (in CCN(CC)CC): 341 nm | absorption maximum (in CCOC(C)=O): 339 nm | absorption maximum (in CCOCC): 340 nm | absorption maximum (in CN(C)C=O): 342 nm | absorption maximum (in Cc1ccccc1): 345 nm | absorption maximum (in ClC(Cl)Cl): 340 nm | absorption maximum (in ClC=C(Cl)Cl): 343 nm | absorption maximum (in ClCCl): 340 nm

COC(=O)C(Cc1ccc2oc(-c3ccncc3)nc2c1)NC(=O)OC(C)(C)C (stereo not drawn)
absorption maximum (in CC1CCCCC1): 307.12 nm | absorption maximum (in CC#N): 302.86 nm | absorption maximum (in CO): 306.08 nm

F[B-]1(F)OC(c2ccc(Br)cc2)=Cc2ccc3ccccc3[n+]21
absorption maximum (in ClC(Cl)Cl): 430 nm

Cc1nc(-c2ccc(N3c4ccccc4C(c4ccccc4)(c4ccccc4)c4ccccc43)cc2)cc(-c2ccc(N3c4ccccc4C(c4ccccc4)(c4ccccc4)c4ccccc43)cc2)n1
absorption maximum (in Cc1ccccc1): 370 nm

COc1cc2sc3cc(OC)c(F)cc3c(=O)c2cc1F
absorption maximum (in CS(C)=O): 316 nm

COc1ccc(-c2cc3c(o2)=CC2=C(C(F)(F)F)c4cc5oc(-c6ccc(OC)cc6)cc5n4[B-](F)(F)[N+]=32)cc1
absorption maximum (in ClC(Cl)Cl): 723 nm

COc1ccc2c(c1)CCC1=C(c3ccccc3)C3=C(c4ccc5cccc(O)c5n4)c4c(-c5ccccc5)c5c(n4[B-](F)(F)[N+]3=C12)-c1ccc(OC)cc1CC5
absorption maximum (in O): 660 nm

CC1(C)CC[N+]2=c3c(cc4c(c31)Oc1cc3c(cc1C=4c1ccccc1C(=O)O)C(c1ccccc1C(=O)O)=c1cc4c5c(c1O3)C(C)(C)CC[N+]=5CCC4)CCC2
absorption maximum (in ClC(Cl)Cl): 611 nm

CCN(CC)c1ccc([N+]2=Cc3ccc4c5c(ccc4c3O[B-]2(c2c(F)c(F)c(F)c(F)c2F)c2c(F)c(F)c(F)c(F)c2F)C=[N+](c2ccc(N(CC)CC)cc2)[B-](c2c(F)c(F)c(F)c(F)c2F)(c2c(F)c(F)c(F)c(F)c2F)O5)cc1
absorption maximum (in C1CCOC1): 559 nm | absorption maximum (in CC#N): 555 nm | absorption maximum (in CC(C)=O): 555 nm | absorption maximum (in Cc1ccccc1): 584 nm | absorption maximum (in ClCCl): 589 nm

C=Cc1cccc(OC)c1
absorption maximum (in C1CCCCC1): 295 nm

COc1cc2sc3nc(-c4ccccc4)sc3c2cc1OC
absorption maximum (in CS(C)=O): 360 nm

F[B-]1(F)n2c(ccc2-c2nc3ccccc3s2)C(c2ccccc2)=C2C=CC(c3nc4ccccc4s3)=[N+]21
absorption maximum (in ClC(Cl)Cl): 623 nm

CCN(CC)c1ccc2c(c1)oc(=O)c1cnc3c(cnn3-c3ccccc3)c12
absorption maximum (in ClCCl): 405 nm

O=C1CC(=O)Nc2cc(C(=O)O)ccc2N1
absorption maximum (in CS(C)=O): 304 nm

CN(C)c1ccc(C2=Cc3c4ccccc4c4ccccc4[n+]3[B-](F)(F)O2)cc1
absorption maximum (in C1CCOC1): 478 nm | absorption maximum (in C1COCCO1): 477 nm | absorption maximum (in CC1CCCCC1): 474 nm | absorption maximum (in CC#N): 476 nm | absorption maximum (in CCOC(C)=O): 475 nm | absorption maximum (in CCOCC): 472 nm | absorption maximum (in CN(C)C=O): 484 nm | absorption maximum (in CO): 475 nm | absorption maximum (in COC(C)=O): 477 nm | absorption maximum (in ClC(Cl)Cl): 483 nm
